In patent US20100166846A1 (priority 2008, published 2010):
Like-named read-outs stand apart in the source and are kept apart here.

Assays:
[1] = rat liver
Description: The tissue from the control animals (water) served as the 100% of the toxin remaining in the tissue. The animals receiving: • a.

[2] = humans, reference (7); cited from earlier work

For `N[C@@H](CCC(=O)N[C@@H](CS)C(=O)NCC(=O)O)C(=O)O` [Plain glutathione, glutathione], the removal of toxin ([1]; CO-60, intravenous administration) is given as 70%, the removal of toxin ([1]; CO-60, oral administration) is given as 10% and the “absorption after oral ingestion” value [2] is given as “not absorbed”.

For `COc1ccccc1OCC(O)COC(N)=O` (centres unmarked) [methocarbolmol], the “tolerability in the animal” value (canine with myoclonus, initial symptom management) was “neither of which was tolerated”.

In the case of `CN1C(=O)CN=C(c2ccccc2)c2cc(Cl)ccc21` [valium], the “tolerability in the animal” value (dog, in vivo) was “neither of which was tolerated”.
